# From US9718781B2, “Methods and compounds for treating proliferative disorders and viral infections” (University College Dublin, National University of Ireland, …, priority 2012, dated 2017)
# Where two headings read alike, the source gives them in different places.
# Assays:
# TPα = molecular target: T1, TPα (Homo sapiens, UniProt P21731); assay: U46619-induced [Ca2+]i mobilization in HEK.TPα cells; format: cell-based; settings: for remaining activity at 1 µM: antagonist 1 μM, read-out: Percentage of Control, TPα, 1 μM; for remaining activity at 1 µM / remaining activity at 10 µM: % of agonist-induced response in vehicle-treated cells; for remaining activity at 10 µM: antagonist 10 μM, read-out: Percentage of Control, TPα, 10 μM
# T1 construct: expressed in transfected cells
# T1 sequence (P21731 1-343): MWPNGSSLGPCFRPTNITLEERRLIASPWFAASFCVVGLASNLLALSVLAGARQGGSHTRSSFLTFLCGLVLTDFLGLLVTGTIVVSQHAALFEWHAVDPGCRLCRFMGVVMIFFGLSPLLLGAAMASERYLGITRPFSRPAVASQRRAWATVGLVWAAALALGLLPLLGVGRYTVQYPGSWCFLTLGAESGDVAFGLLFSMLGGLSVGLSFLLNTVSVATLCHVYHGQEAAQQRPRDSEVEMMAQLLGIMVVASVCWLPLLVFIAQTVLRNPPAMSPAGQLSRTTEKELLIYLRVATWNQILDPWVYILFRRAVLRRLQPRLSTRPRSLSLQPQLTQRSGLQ
# Method in brief: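 HEK293 cells loaded with 3 μM Fluo-4 (1 h, 25° C.) in Krebs-HEPES pH 7.4, then pre-incubated with compound for 10 min. Fluorescence at 520 nm tracked after injection of 1 μM U46619. Signal calibrated by Fmax (2% Triton X100) and Fmin (1 mM EGTA).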
# platelets in whole blood = assay: U46619-mediated platelet aggregation in whole blood (Sysmex haematological analyzer); format: cell-based, human; settings: antagonist 0.1 μM, 1 μM U46619
# Experimental: From an efficacy point of view, this is an important assay and, physiologically, relevant with respect to the therapeutic target.
# Initially, the Sysmex haematological analyzer was used to examine the effect of the TP antagonists at a single concentration (0.1 μM) on U46619 (1 μM)-mediated platelet aggregation in whole blood.
# FIG. 3 illustrates effects of the TP antagonist compounds on U46619-mediated platelet aggregation. Blood was taken form healthy volunteer by venupuncture into syringes containing 3.8% sodium citrate, 10 μM Indomethacin, such that the ratio of anticoagulant:blood was 1:9. The blood was aliquoted and incubated for 10 min with TP20 and selected NTP compounds, as indicated, where the antagonist were used at 0.1 μM prior to stimulation with 1 μM U46619 for 3 min. The blood was fixed with formaldehyde and platelet numbers counted using the Sysmex haematological analyzer. Data is presented as the mean percentage of control or non-treated blood sample (Percentage of Control; %) and represent data from 3 independent experiments were samples were treated in duplicate.
# [1] = side-by-side comparison, n=5, Table 2.6, read-out: IC50 values for inhibition of U46619-mediated [Ca2+]i, TPα
Compound,remaining activity at 1 µM (TPα; 1 μM U46619) [%],remaining activity at 10 µM (TPα; 1 μM U46619) [%],IC50 (TPα; [1]) [nM],inhibition of U46619-mediated reduction in platelet number (platelets in whole blood),"IC50 (TPα; HEK.TPα cells, 1 μM U46619, Table 2, read-out: IC50 data for U46619-mediated [Ca2+]i mobilization, TPα) [nM]",TPα:TPβ Selectivity Ratio (TPα; IC50 TPα/IC50 TPβ)
"COc1ccc(-c2cccc(Oc3ccc(C#N)cc3S(=O)(=O)NC(=O)NC(C)(C)C)c2)cc1 [NTP4, N-(tert-butylcarbamoyl)-5-cyano-2-((4′-methoxy-[1,1′-biphenyl]-3-yl)oxy)benzenesulfonamide]",46.1 ± 3.87,19.9 ± 2.13,593 ± 83.6,approx. 50%,–,–
"COc1ccc(-c2cccc(Oc3ccc([N+](=O)[O-])cc3S(=O)(=O)NC(=O)NC(C)(C)C)c2)cc1 [TP20, N-(tert-butylcarbamoyl)-2-((4′-methoxy-[1,1′-biphenyl]-3-yl)oxy)-5-nitrobenzene-sulfonamide]",45.4 ± 4.07,17.1 ± 2.46,240 ± 29.8,almost completely inhibited,119,16.2
